Source: patent US20220127568A1, “COMPOSITIONS AND METHODS FOR GENERATING HAIR CELLS BY INHIBITING EPIGENETIC TARGETS” (Frequency Therapeutics, Inc., priority 2019, published 2022)
“Also recorded” adds a separate entry of the source. Where two headings read alike, the source gives them in different places.

Assays:
[1] = cited from earlier work; for Human Plasma Conc.: LSD1 inhibitors
[2] = system: Lgr5 GFP+ cochlear progenitor cells; assay: Lgr5+ Assay (Stem Cell Proliferation Assay); type: cell-based; conditions: for Lgr5 GFP(+) cell count / Lgr5 GFP(+) cell proliferation percentage / enrichment of Lgr5 GFP+ cells (y-axis: Lgr5 GFP(+) cell count): EFI-CV
[3] = system: Lgr5+ cochlear progenitor cells; assay: Quantification of Lgr5+ cochlear progenitor cell proliferation, expansion and enrichment (3D Matrigel culture, Celigo imaging, GFP(+) cell area); type: cell-based, mouse; conditions: for proliferation or enrichment of cochlear progenitor cells: inhibitor alone
[4] = EZH2 inhibitors, <= is the upper end of a wrapped range
[5] = EZH2 inhibitors, active concentration range, <= is the upper end of a wrapped range
[6] = active concentration of LSD1 inhibitor, >= is the lower end of a range wrapped over two lines

**Q.** With O=C(N/N=C/c1c(O)ccc2ccccc12)c1ccncc1 [AS 8351] as the compound, how does the “Human In Vivo Conc” value ([1]; KDM inhibitors) read?
**A.** 1000 to 3000 µM

**Q.** And the “Lgr5 GFP(+) cell count” value ([2]; FIG. 37A: 2 μM AS 8351 + 3 μM CHIR99021 + 1 mM VPA in EFI vs EFI-C)?
**A.** further enhances Lgr5 GFP+ progenitor cell proliferation

**Q.** And the “Lgr5 GFP(+) cell proliferation percentage” value ([2]; FIG. 37B: 2 μM AS 8351 + 3 μM CHIR99021 + 1 mM VPA in EFI vs EFI-C)?
**A.** further enhances enrichment

**Q.** What about the “Lgr5+ Assay” value ([2]; KDM inhibitors, active concentration range) of the same compound?
**A.** 1 to 3 µM

**Q.** For CCS(=O)(=O)N1CCC(C(C)n2c(C)c(C(=O)NCc3c(OC)cc(C)[nH]c3=O)c3ccccc32)CC1 (stereo not shown) [CPI-169], which “Human In Vivo Conc” value [1, 4] is on record?
**A.** 1 to 10 µM

**Q.** What about the “Lgr5+ Assay” value [2, 5] of the same compound?
**A.** 0.1 to 10 µM

**Q.** And the “Lgr5 GFP(+) cell count” value ([2]; FIG. 11A: 1.11 μM CPI-169 + 4 μM CHIR99021 in EFI vs EFI-C)?
**A.** enhances Lgr5 GFP+ progenitor cell proliferation

**Q.** What about the “Lgr5 GFP(+) cell area” value ([2]; FIG. 33A: 1.11 μM CPI-169 + 4 μM CHIR99021 in EFI vs CHIR alone) of the same compound?
**A.** enhances Lgr5 GFP+ progenitor cell proliferation

**Q.** And the “Lgr5 GFP(+) cell area percentage” value ([2]; FIG. 33B: 1.11 μM CPI-169 + 4 μM CHIR99021 in EFI vs CHIR alone)?
**A.** enhances enrichment

**Q.** Which “Human In Vivo Conc” value [1, 4] does the source give for COc1cc(C)[nH]c(=O)c1CNC(=O)c1c(C)n([C@H](C)C2CCOCC2)c2ccccc12 [CPI-360] here?
**A.** 1 to 10 µM

**Q.** And the “Lgr5+ Assay” value [2, 5]?
**A.** 0.1 to 10 µM

**Q.** What about the “Lgr5 GFP(+) cell area” value ([2]; FIG. 12A: 0-30 μM CPI-360 alone in EFI) of the same compound?
**A.** does not proliferate

**Q.** And the “Lgr5 GFP(+) cell area percentage” value ([2]; FIG. 12B: 0-30 μM CPI-360 alone in EFI)?
**A.** does not enrich

**Q.** What about the “Lgr5 GFP(+) cell area” value ([2]; FIG. 13A-16A: 3.33 μM CPI-360 + 4 μM CHIR99021 in EFI vs CHIR alone) of the same compound?
**A.** enhances Lgr5 GFP+ progenitor cell proliferation; also recorded: enhances Lgr5 GIP+ progenitor cell proliferation

**Q.** And the “Lgr5 GFP(+) cell area percentage” value ([2]; FIG. 13B-16B: 3.33 μM CPI-360 + 4 μM CHIR99021 in EFI vs CHIR alone)?
**A.** enhances enrichment

**Q.** What does the source list for CCN(c1cc(C#CCN2CCOCC2)cc(C(=O)NCc2c(C)cc(C)[nH]c2=O)c1C)[C@H]1CC[C@H](N(C)CCOC)CC1 [EPZ011989]?
**A.** proliferation or enrichment of cochlear progenitor cells [3]: does not promote proliferation or enrichment; Lgr5 GFP(+) cell area ([2]; FIG. 25A: 0-10 μM EPZ011989 alone in EFI): does not proliferate; enrichment of Lgr5 GFP+ cells (y-axis: Lgr5 GFP(+) cell area) ([2]; FIG. 25B: 0-10 μM EPZ011989 alone in EFI): does not enrich; Lgr5 GFP(+) cell area ([2]; FIG. 26A-29A: 123 nM EPZ011989 + 4 uM CHIR99021 in EFI vs CHIR alone): enhances Lgr5 GFP+ progenitor cell proliferation; Lgr5 GFP(+) cell area percentage ([2]; FIG. 26B-29B: 123 nM EPZ011989 + 4 uM CHIR99021 in EFI vs CHIR alone): enhances enrichment

**Q.** Which “Lgr5+ progenitor cell proliferation and enrichment” value ([3]; inhibitor 370 nM with CHIR99021 (4 μM) and VPA (1 mM)) does the source give for O=C(O)c1ccc(CN2CCC(CN[C@@H]3C[C@H]3c3ccccc3)CC2)cc1 [GSK2879552] here?
**A.** proliferation and enrichment are enhanced

**Q.** And the “Lgr5 GFP(+) cell count” value ([2]; FIG. 4A: 370 nM GSK2879552 + 4 μM CHIR99021 + 1 mM VPA in EFI vs EFI-C)?
**A.** enhances Lgr5 GFP+ progenitor cell proliferation

**Q.** What about the “Lgr5 GFP(+) cell proliferation percentage” value ([2]; FIG. 4B: 370 nM GSK2879552 + 4 μM CHIR99021 + 1 mM VPA in EFI vs EFI-C) of the same compound?
**A.** enhances enrichment

**Q.** For c1ccc([C@@H]2C[C@H]2NC2CCNCC2)cc1 [GSK-LSD1], which “Human Plasma Conc.” value [1] is on record?
**A.** 1 to 100 nM

**Q.** And the “Lgr5 GFP(+) cell count” value ([2]; FIG. 5A: 4.5 nM GSK-LSD1 + 4 μM CHIR99021 + 1 mM VPA in EFI vs EFI-C)?
**A.** enhances Lgr5 GFP+ progenitor cell proliferation

**Q.** And the “Lgr5 GFP(+) cell proliferation percentage” value ([2]; FIG. 5B: 4.5 nM GSK-LSD1 + 4 μM CHIR99021 + 1 mM VPA in EFI vs EFI-C)?
**A.** enhances enrichment

**Q.** And the “Lgr5+ Assay” value [2, 6]?
**A.** ≥ 4 nM-

**Q.** Which “Lgr5+ progenitor cell enrichment” value ([3]; in combination with CHIR99021 (FIG. 23, FIG. 24)) does the source give for CC(=O)O.Cc1cc(C)c(CN2CCc3c(Cl)cc(-c4c(C)noc4C)c(Cl)c3C2=O)c(=O)[nH]1 [PF 06726304 acetate] here?
**A.** enriched

**Q.** What about the “proliferation or enrichment of cochlear progenitor cells” value [3] of the same compound?
**A.** does not promote the proliferation or enrichment

**Q.** And the “Lgr5 GFP(+) cell area” value ([2]; FIG. 20A: 0-90 μM PF 06726304 acetate alone in EFI)?
**A.** does not proliferate

**Q.** And the “enrichment of Lgr5 GFP+ cells (y-axis: Lgr5 GFP(+) cell area)” value ([2]; FIG. 20B: 0-90 μM PF 06726304 acetate alone in EFI)?
**A.** does not enrich

**Q.** What about the “Lgr5 GFP(+) cell area” value ([2]; FIG. 21A, 22A: 370 nM PF 06726304 acetate + 4 μM CHIR99021 in EFI vs CHIR alone) of the same compound?
**A.** enhances Lgr5 GFP+ progenitor cell proliferation

**Q.** What about the “Lgr5 GFP(+) cell area percentage” value ([2]; FIG. 21B, 22B: 370 nM PF 06726304 acetate + 4 μM CHIR99021 in EFI vs CHIR alone) of the same compound?
**A.** enhances enrichment

**Q.** For CN1CCN(C(=O)CN[C@H]2C[C@@H]2c2ccc(OCc3ccccc3)cc2)CC1.Cl.Cl [RN-1 HCl], which “proliferation or enrichment of cochlear progenitor cells” value [3] is on record?
**A.** does not promote the proliferation or enrichment

**Q.** And the “Lgr5 GFP(+) cell count” value ([2]; FIG. 38A: 0-30 μM RN-1 HCl alone in EFI vs EFI-C, EFI-CVT (7 μM tranylcypromine))?
**A.** does not proliferate

**Q.** What about the “enrichment of Lgr5 GFP+ cells (y-axis: Lgr5 GFP(+) cell count)” value ([2]; FIG. 38B: 0-30 μM RN-1 HCl alone in EFI vs EFI-C, EFI-CVT) of the same compound?
**A.** does not enrich

**Q.** And the “Lgr5 GFP(+) cell count” value ([2]; FIG. 39A: 41 nM RN-1 + 4 μM CHIR99021 + 1 mM VPA in EFI vs EFI-C, EFI-CVT)?
**A.** further enhances Lgr5 GFP+ progenitor cell proliferation

**Q.** And the “enrichment of Lgr5 GFP+ cells (y-axis: Lgr5 GFP(+) cell count)” value ([2]; FIG. 39B: 41 nM RN-1 + 4 μM CHIR99021 + 1 mM VPA in EFI vs EFI-C, EFI-CVT)?
**A.** enhances enrichment

**Q.** For CN1CCN(C(=O)CN[C@H]2C[C@@H]2c2ccc(OCc3ccccc3)cc2)CC1.Cl.Cl [RN-1], which “Human Plasma Conc.” value [1] is on record?
**A.** 1 to 100 nM

**Q.** What about the “Lgr5+ Assay” value [2, 6] of the same compound?
**A.** 0.041 µM

**Q.** For NC1CC1c1ccccc1 (stereo not shown) [TCP], which “Human Plasma Conc. Cmax” value ([1]; human plasma Cmax, >= and <= are the ends of a wrapped range) is on record?
**A.** 0.03 to 0.2 µg/mL

**Q.** And the Cmax ([1]; human plasma Cmax, read-out: Human Plasma Conc. Cmax (molar, in brackets))?
**A.** 0.225 to 1.5 µM

**Q.** What about the “Lgr5+ Assay” value ([2]; active concentration of LSD1 inhibitor, <= is the upper end of a range wrapped over two lines) of the same compound?
**A.** 0.1 to 20 µM

**Q.** With CCN(c1cc(-c2ccc(CN3CCOCC3)cc2)cc(C(=O)NCc2c(C)cc(C)[nH]c2=O)c1C)C1CCOCC1 [tazemetostat] as the compound, how does the “Human In Vivo Conc” value ([1]; EZH2 inhibitors, >= is the lower end of a wrapped range) read?
**A.** (200-1600 nM)

**Q.** What about the “Human In Vivo Conc” value ([1]; EZH2 inhibitors) of the same compound?
**A.** 100 to 800 ng/mL

**Q.** And the “Lgr5+ Assay” value [2, 5]?
**A.** 0.1 to 10 µM
